Assay results as given in publication PMC6197257 (Scientific Reports, 2018).

Columns and labels:
anti-3MGA MAb = assay: competitive ELISA cross-reactivity of anti-3MGA MAb; assay type: binding, mouse; settings: CR = IC50 for 3MGA / IC50 for compound x 100, 3MGA calibrated as 100%
Procedure: To activate the hapten 3MGA for the preparation of anti-3MGA MAb, the 3MGA-KLH conjugate was synthesized by using a model based on the carbodiimide method with both EDC and NHS reagents. 3MGA-HSA was also prepared using the same method, and was used for ELISA. We also evaluated the hapten number of the 3MGA-HSA conjugate by MALDI-TOF MS analysis. […] The MAb was developed by using the same methods described in our previous study. Hybridomas secreting antibodies recognizing 3MGA were selected by ELISA and then subcloned 4 times by the limited dilution method. […] The heavy chain of the obtained MAb was classified using a Calbiochem mouse hybridoma subisotyping kit (EMD Biosciences, Darmstadt, Germany), whereas the light chain was estimated using an IsoQuick^TM mouse monoclonal isotyping strip (Sigma) according to the manufacturer’s instructions.
3MGA-HSA (1 µg/ml in 50 mM carbonate buffer, pH 9.6) was added into a 96-well plate (Nagel Nunc, Penfield, NY, USA) (100 µl/well), and incubated at 37 °C for 1 h. After the removal of 3MGA-HSA, the wells were washed with 200 µl/well PBS containing 0.05% Tween 20 (T-PBS) for 3 times. The wells were incubated with 300 µl/well of 5% skim milk (Morinaga-milk, Tokyo, Japan) at 4 °C overnight. […] After the wells were washed with T-PBS 3 times, HRP-labeled goat anti-mouse IgG (Fc specific) antibody (1:1,000 dilution with T-PBS) was added into the wells (100 µl/well), and the plate was incubated at 37 °C for 1 h. Next, the wells were washed with T-PBS 3 times, the substrate solution (0.006% H2O2 in 200 mM citrate buffer, pH 4.0/H2O/0.6 mg/ml ABTS 10:9:1) was added into the wells (100 µl/well), and incubated at room temperature for 15 min.

[1] = pharmacokinetics in EHBRs orally treated with GA (200 mg/kg), LC-MS/MS; assay type: in vivo, Eisai Hyperbilirubinemia rats (EHBRs); settings: Eisai Hyperbilirubinemia rats (EHBR), rat, plasma; female EHBRs, GA 200 mg/kg oral, 12 h; read-out: plasma concentration 12 h after GA treatment
Procedure: Female SD rats or EHBRs (9-week-old) were anesthetized by an intraperitoneal (i.p.) injection of urethane (1 g/kg) and their jugular veins were exposed. […] Aliquots (10 µl) of plasma or urine were mixed with 20 µl of subtilisin (0.91 U/ml), incubated at 37 °C for 30 min, followed by the addition of 70 µl of astragalloside IV solution (1 µg/ml in ethanol containing 0.5% formic acid), and kept at −20 °C for 30 min.

[2] = concentrations in pooled plasma of EHBRs 12 h after oral GA (200 mg/kg); assay type: in vivo; settings: Eisai Hyperbilirubinemia rats (EHBR), rat
Procedure: Three female and three male EHBRs (9-week-old, respectively) were injected with urethane (1 g/kg, i.p.), and orally treated with an aqueous GA aqueous suspension (200 mg/kg in 1% CMC). Twelve h after the treatment, blood was collected from the abdominal vena cava, and the plasma samples of each sex rat were pooled.
(§1) LC-ESI(+)MS/MS analysis was conducted at the following conditions: column, Scherzo SM-C18 (3 μm, 3 mm i.d. ×100 mm, Imtakt, Kyoto, Japan); mobile phase, (A) 5 mM AcNH4, (B) 125 mM AcNH4/acetonitrole 1:4, at a flow rate of 0.3 ml/min, with the following gradient profile: A:B = 50:50–0:100 (0–3 min) and 0:100 (3–10 min); compound 1 (5.8 min), astragaloside IV (3.0 min), GA (8.7 min); the transitions monitored were the same as described in the previous section. Linear regressions over the concentration range 0.08–2 µM for compound 1 and 3.2 nM–2 µM for GA were examined using the peak-area ratio of the compounds to their internal standards and the least-squares method (r^2 > 0.98).

rat kidney slices = assay: uptake by rat kidney slices; assay type: in vitro ADME; settings: pooled plasma of female EHBRs, pH 5.5, 2 h
Procedure: Female SD rats (9-week-old) were treated with urethane (1 g/kg, i.p.), and their kidneys were collected. After removal of the capsule, the kidneys were sliced at approximately 0.5-mm thickness in the frontal section of the organ, using a tissue slicer (Natsume Seisakusyo, Tokyo, Japan) and then cut at the renal hilus into two halves. The slices were pre-incubated at either 4 or 37 °C for 15 min in 24-well plates with 0.3 ml of the incubation medium (137 mM NaCl, 5.4 mM KCl, 0.95 mM CaCl2, 0.81 mM MgSO4, 0.44 mM KH2PO4, 0.25 mM Na2HPO4, 5.5 mM glucose, 10 mM MES, adjusted to pH 5.5). Five ml of pooled female EHBR plasma samples was lyophilized, and dissolved in 5 ml of the incubation medium. […] After washing with PBS three times, the kidney slices were homogenated in PBS using sonication, and the concentrations of protein were measured as mentioned above. […]
as §1, with “Linear regressions over the concentration range 0.08–2 µM for compound 1 and 3.2 nM–2 µM for GA were examined using the peak-area ratio of the compounds to their internal standards and the least-squares method (r^2 > 0.98).” left out

CYP3A4 = test system: CYP3A4; set-up: method as in PMID 26712778, PMID 22943175; settings: competitive inhibitor; cited from earlier work
CYP2C9 = test system: CYP2C9; set-up: method as in PMID 26712778, PMID 22943175; settings: competitive inhibitor; cited from earlier work
CYP2C19 = test system: CYP2C19; set-up: method as in PMID 26712778, PMID 22943175; settings: competitive inhibitor; cited from earlier work

Compound | cross-reactivity of anti-3MGA MAb (anti-3MGA MAb) | also measured
CC1(C)[C@@H](O)CC[C@]2(C)[C@H]3C(=O)C=C4[C@@H]5C[C@@](C)(C(=O)O)CC[C@]5(C)CC[C@@]4(C)[C@]3(C)CC[C@@H]12 [GA, 18β-glycyrrhetinic acid] | 1.04% | concentration at 12 h [1]: 5.9 µM; concentration at 12 h ([2]; female, read-out: concentration in pooled plasma, female EHBRs): 7 µM; concentration at 12 h ([2]; male, read-out: concentration in pooled plasma, male EHBRs): 3.2 µM; uptake by kidney slices at 37 °C compared with 4 °C (rat kidney slices): similar; IC50 (CYP3A4): 8.2 to 14 µM; IC50 (CYP2C9): 33 to 43 µM; IC50 (CYP2C19): 41 to 74 µM
CC1(C)[C@@H](O[C@H]2O[C@H](C(=O)O)[C@@H](O)[C@H](O)[C@H]2O[C@@H]2O[C@H](C(=O)O)[C@@H](O)[C@H](O)[C@H]2O)CC[C@]2(C)[C@H]3C(=O)C=C4[C@@H]5C[C@@](C)(C(=O)O)CC[C@]5(C)CC[C@@]4(C)[C@]3(C)CC[C@@H]12 [GL, glycyrrhizin] | 0.22% | –
CC(C)=CCC[C@](C)(O[C@@H]1O[C@H](CO[C@@H]2O[C@H](CO)[C@@H](O)[C@H](O)[C@H]2O)[C@@H](O)[C@H](O)[C@H]1O)[C@H]1CC[C@]2(C)[C@@H]1[C@H](O)C[C@@H]1[C@@]3(C)CC[C@H](O[C@@H]4O[C@H](CO)[C@@H](O)[C@H](O)[C@H]4O[C@@H]4O[C@H](CO)[C@@H](O)[C@H](O)[C@H]4O)C(C)(C)[C@@H]3CC[C@]12C [ginsenoside Rb1] | less than 0.02% | –
C[C@]1(C(=O)O)CC[C@]2(C)CC[C@]3(C)C(=CC(=O)[C@@H]4[C@@]5(C)CC[C@H](O[C@@H]6O[C@H](C(=O)O)[C@@H](O)[C@H](O)[C@H]6O[C@@H]6O[C@H](C(=O)O)[C@@H](O)[C@H](O)[C@H]6O)[C@](C)(CO)[C@@H]5CC[C@]43C)[C@@H]2C1 [licorice saponin G2] | less than 0.02% | –
O=C1C[C@@H](c2ccc(O[C@@H]3O[C@H](CO)[C@@H](O)[C@H](O)[C@H]3O)cc2)Oc2cc(O)ccc21 [liquiritin] | less than 0.02% | –
C[C@@]12C[C@@]3(O)O[C@@H](O1)[C@]1(COC(=O)c4ccccc4)[C@H]3C[C@@]12O[C@@H]1O[C@H](CO)[C@@H](O)[C@H](O)[C@H]1O [paeoniflorin] | less than 0.02% | –
C[C@H]1O[C@@H](O[C@H]2CC[C@@]3(C)[C@@H](CC[C@]4(C)[C@@H]3C=C[C@]35OC[C@@]6(CCC(C)(C)C[C@H]63)[C@@H](O)C[C@]54C)[C@]2(C)CO)[C@H](O)[C@@H](O[C@@H]2O[C@H](CO)[C@@H](O)[C@H](O)[C@H]2O)[C@H]1O [saikosaponin a] | less than 0.02% | –
